Entries after “also recorded” stand apart in the source; their conditions may differ.

Here are results for 6 molecules from patent publication US20150056166A1, “FLAVONE DERIVATIVES AND THEIR USE” (Twincore GmbH, priority 2012, published 2015).

One data set relates to JcR-2a virus. Nature of the data set: Chloroquine alone and with BJ486K, JcR-2a virus in Huh7.5 F-Luc cells. The data set is classed as cell-based, HCV. As to conditions: chloroquine alone. On the procedure: Result from one experiment with triplicate measurements is given. (B) Combined effects of CQ on BJ486K activity (and vice versa) were analyzed by inoculation of Huh7.5 F-Luc cells with JcR-2a virus in the presence of given drugs and determination of luciferase activity 72 h later. Results from 3 independent experiments are given.

The next data set concerns Huh7.5 F-Luc cells. The data set can be described thus: Cytotoxicity of chloroquine (FIG. 11A). As to conditions: at the used concentrations.
The subject of data set [1] is Luc-Jc1/E2/G451R reporter viruses. The data set can be described thus: Resistance test, Luc-Jc1 versus Luc-Jc1/E2/G451R reporter virus. As to conditions: Huh7-Lunet/CD81 cells, luciferase 72 h. The class given is cell-based, HCV. On the procedure: FIG. 4: BJ486K is not affected by viral resistance towards a SR-BI-targeting compound, inhibits HCV of different genotypes and prevents infection of primary human hepatocytes Huh7-Lunet/CD81 cells were inoculated with Luc-Jc1 or Luc-Jc1/E2/G451R reporter viruses in the presence of increasing doses of (A) ITX 5061 or (B) BJ486K. Cells were lysed 72 h later. Luciferase activity was determined and is expressed relative to control infections conducted in the presence of DMSO. Mean values of four independent experiments each with quadruplicate measurements including the standard deviation are shown. (C) Huh7-Lunet/CD81 cells were inoculated with genotype 1a, 1b, 2b, 3a, 4a, 5a and 6a chimeric reporter viruses in the presence of increasing doses of BJ486K. Luciferase activity was determined 72 h later and is expressed relative to infections in the presence of DMSO. Mean values of three independent experiments, each with triplicate measurements, are given. (D) Primary human hepatocytes were inoculated with Con1/C3 in the presence of DMSO or increasing concentrations of BJ486K. The inhibition of HCV infection was assessed by focus-formation assay and is expressed as % inhibition relative to DMSO-treated cells. Mean values of duplicate measurements including the error range are given. […]

The nature of data set [2]: UV-visible spectrophotometric titration by MgCl2. As to conditions: high excess of Mg(II); CH3CN/H2O (1:1 by volume). The class given is physicochemical. On the procedure:
FIG. 17: (A) UV-visible spectrophotometric titration of BJ486K (newly re-prepared as XM148) by MgCl2 and (B) absorption electronic spectra of the flavone BJ486K and its magnesium(II) complex BJ486K-MgCl2. Solvent: CH3CN/H2O (1:1 by volume); T=25.0° C.; l=1 cm; [BJ486K]tot=7.63×10^−5 M; (1) [MgCl2]tot/[BJ486K]tot=0; (2) [MgCl2]tot/[BJ486K]tot=185.8. To ensure solubilisation of both the flavone BJ486K (newly re-prepared as XM148) and MgCl2, a mixed solvent made of 50% of water and 50% of CH3CN was used. A stock solution of XM148 ([…] in 10 mL of argon saturated CH3CN, [XM148]tot=9.54×10^−3 M) was prepared. 160 μL of the flavone stock solution in CH3CN was diluted in 1 mL and 840 μL of Ar-saturated water and CH3CN, respectively. The absorption spectrophotometric titration (200-800 nm) was carried out by successive addition of aliquots (10 μL) of a stock solution of MgCl2 freshly prepared in water (337.6 mg in 5 mL, [MgCl2]tot=7.09×10^−3 M). […]
FIG. 18: (A) UV-visible spectrophotometric titration of XM131 (final precursor B, Scheme 2) by MgCl2. […] Absorption spectra (200-800 nm) was recorded after each addition of aliquots (10 μL) of a stock solution of MgCl2 freshly prepared in water (337.6 mg in 5 mL, [MgCl2]tot=7.09×10^−3 M). […]

A further data set deals with Jc1. Nature of the data set: HCV virus assembly/release, intra- and extracellular core protein after Jc1 RNA transfection. As to conditions: 48 h after transfection, drugs added 4 h after transfection. The data set is classed as cell-based. On the procedure: (A) Huh7-Lunet/CD81 cells were transfected with the subgenomic luciferase replicon depicted at the top. Drugs were added 4 h post transfection and the level of HCV RNA translation and RNA replication was quantified by luciferase assays 72 h post transfection. Mean values of three independent experiments each with quadruplicate measurements including the standard deviation are shown. (B) Cells were transfected with the Jc1 chimera depicted above and drugs were added 4 h later. HCV virus release in the presence or absence of given compounds was determined by quantification of intracellular and extracellular core protein levels using a core-specific ELISA. Mean values of three independent experiments with single measurements including the error range are given. (C) Huh7-Lunet/CD81 cells were inoculated with Luc-Jc1 reporter viruses prepared in the absence of drugs. BJ486K was added to the cells only prior to inoculation (black), only during inoculation (grey) or selectively directly after inoculation (white) as schematically depicted at the top. Infectivity was determined 72 h later by luciferase assays and compared to DMSO-treated controls. Mean values of three independent experiments each with quadruplicate measurements including the standard deviation are shown.
Huh7-Lunet/CD81 cells were transfected with Jc1 RNA and seeded on a 6-well plate. Compounds were added 4 h later. At 48 h after transfection, cell culture supernatant was harvested and used for measuring the extracellular core amount. Cells were washed once with PBS, scraped and centrifuged for 5 min at 1000×g. Cell pellets were resuspended in 500 μl fresh culture fluid and subjected to three cycles of freeze and thaw using liquid nitrogen and a 37° C. thermo block. Samples were than centrifuged at 10,000×g for 10 min to remove cell debris and the core amount was measured (intracellular core protein) using the […] […]
To determine whether BJ486K affects virus assembly or release we transfected Huh7-Lunet/CD81 cells with Jc1 RNA and quantified intra- and extracellular levels of core protein 48 h after transfection (FIG. 2B).

A further data set deals with JcR-2a virus particles. Nature of the data set: Antiviral activity against early steps of HCV cell entry, synchronized JcR-2a infection (FIG. 3). The class given is cell-based. As to conditions: heparin 50 μg/ml, JS-81 2 μg/ml; inhibitor present 4 h. Here is the method:
FIG. 3: BJ486K inhibits cell entry post virus attachment. The design of the JcR-2a reporter virus construct is given at the top. Huh7-Lunet/CD81 cells were inoculated with concentrated JcR-2a particles at 4° C. for 60 minutes. Subsequently, unbound virus particles were washed away and cells were shifted to 37° C. to permit synchronized cell entry. According to the 8 experimental protocols depicted in the middle, various cell entry inhibitors including heparin (50 μg/ml), ITX5061 (10 μM), CD81-specific antibody JS-81 (2 μg/ml) and BJ486K (20 μM) were either present during inoculation (protocol 1) or were added at different time points after inoculation (protocols 2 to 8). In each case, inhibitor was present for 4 h (dashed line) and was then washed away. Efficiency of cell entry was determined 48 h post inoculation by determination of luciferase activity and is expressed relative to control infections conducted in the presence of solvent alone (DMSO). Mean values of three independent experiments each with quadruplicate measurements including the standard deviation are shown.
JcR-2a virus particles were incubated with Huh7-Lunet/CD81 cells seeded as described above for 1 h at 4° C. to synchronize cell entry. Various inhibitors including 50 μg/ml heparin (Sigma-Aldrich), CD81-specific antibody JS-81 (2 μg/ml; Becton Dickinson), ITX 5061 (10 μM) or BJ486K (20 μM), were added during virus inoculation (protocol 1) or at indicated time points after virus inoculation (protocol 2-8). After 4 h inhibitor treatment, medium was changed to fresh culture fluid without inhibitors and the cells were lysed 48 h after inoculation as described above. Efficiency of infection was determined by luciferase assay using a tube luminometer (Lumat LB9507, Berthold, Freiburg, Germany).
To resolve which step of HCV cell entry is inhibited by BJ486K, we assessed its antiviral activity when administered at different time points during the early phase of infection. To this end, Huh7-Lunet/CD81 cells were inoculated for one hour at 4° C. with a reporter virus prepared in the absence of drugs. […]

On to `CCN(CC)CCCC(C)Nc1ccnc2cc(Cl)ccc12` (stereo not drawn) [Chloroquine, chloroquine], for which the anti-HCV effect result is recorded as “dose-dependent anti-HCV effect” in the data set with JcR-2a virus and “dose-dependent inhibition of HCV” with JcR-2a virus (listed as chloroquine). The cytotoxicity entry in the data set on Huh7.5 F-Luc cells is on record as “no cytotoxicity detectable”; with Huh7.5 F-Luc cells (listed as chloroquine), “no cytotoxicity”.

As to `COc1c(NC(=O)C(=O)c2ccc(OCCN3CCOCC3)c3ccccc23)cc(C(C)(C)C)cc1NS(C)(=O)=O` [ITX5061, reference compound], in data set [1], the “antiviral activity against G451R mutant compared with wild type” value was “resistant”. On to `COc1ccc(-c2cc(=O)c3c(OC)c(O)c(OC)cc3o2)cc1` [XM131, 6-Hydroxy-5,7-dimethoxy-2-(4-methoxy-phenyl)-chromen-4-one], for which the “Mg(II) complexation” value in data set [2] was “no absorption variation can be observed; also recorded: no Mg(II) complex is observed”. Take `O=C1C[C@@H](c2ccc(O)cc2)Oc2cc(O)cc(O)c21` [naringenin]: in the data set on Jc1, the “reduction of extracellular levels of core protein” value is given as “ca. 5 fold”. On the same count and under the same terms, the value for `C=C[C@H]1C[N@@]2CC[C@H]1C[C@@H]2[C@@H](O)c1ccnc2ccc(OC)cc12` [quinidine] was “more than 100 fold”. As for heparin [reference compound], the “inhibition of HCV entry by time of addition, in words” value in the data set on JcR-2a virus particles is “only interfered with HCV infection when present already during inoculation”.
